From article PMC10700596 (Nature Communications, 2023)
Several values for one entry are separate records, joined by “and”; a condition that tells them apart may be missing. Equal entries are not always repeated.

How the values were obtained:
Type in all cases: cell-based
[1] = molecular target: 320 GPCRs (Homo sapiens, UniProt O00222)
[2] = molecular target: 320 GPCRs (Homo sapiens, UniProt O00270)
[3] = molecular target: 320 GPCRs (Homo sapiens, UniProt O00421)
[4] = molecular target: 320 GPCRs (Homo sapiens, UniProt O00574)
[5] = molecular target: 320 GPCRs (Homo sapiens, UniProt O14842)
[6] = molecular target: 320 GPCRs (Homo sapiens, UniProt O15218)
[7] = molecular target: 320 GPCRs (Homo sapiens, UniProt P18825)
[8] = molecular target: 320 GPCRs (Homo sapiens, UniProt P21453)
[9] = molecular target: 320 GPCRs (Homo sapiens, UniProt P22888)
[10] = molecular target: 320 GPCRs (Homo sapiens, UniProt P24530)
[11] = molecular target: 320 GPCRs (Homo sapiens, UniProt P25021)
[12] = molecular target: 320 GPCRs (Homo sapiens, UniProt P30968)
[13] = molecular target: 320 GPCRs (Homo sapiens, UniProt P32239)
[14] = molecular target: 320 GPCRs (Homo sapiens, UniProt P32248)
[15] = molecular target: 320 GPCRs (Homo sapiens, UniProt P34972)
[16] = molecular target: 320 GPCRs (Homo sapiens, UniProt P35348)
[17] = molecular target: 320 GPCRs (Homo sapiens, UniProt P35410)
[18] = molecular target: 320 GPCRs (Homo sapiens, UniProt P37288)
[19] = molecular target: 320 GPCRs (Homo sapiens, UniProt P41594)
[20] = molecular target: 320 GPCRs (Homo sapiens, UniProt P43088)
[21] = molecular target: 320 GPCRs (Homo sapiens, UniProt P49019)
[22] = molecular target: 320 GPCRs (Homo sapiens, UniProt P51684)
[23] = molecular target: 320 GPCRs (Homo sapiens, UniProt Q13255)
[24] = molecular target: 320 GPCRs (Homo sapiens, UniProt Q13258)
[25] = molecular target: 320 GPCRs (Homo sapiens, UniProt Q13304)
[26] = molecular target: 320 GPCRs (Homo sapiens, UniProt Q14416)
[27] = molecular target: 320 GPCRs (Homo sapiens, UniProt Q15760)
[28] = molecular target: 320 GPCRs (Homo sapiens, UniProt Q16581)
[29] = molecular target: 320 GPCRs (Homo sapiens, UniProt Q7Z7M1)
[30] = molecular target: 320 GPCRs (Homo sapiens, UniProt Q86SQ4)
[31] = molecular target: 320 GPCRs (Homo sapiens, UniProt Q8IZF5)
[32] = molecular target: 320 GPCRs (Homo sapiens, UniProt Q8TDU9)
[33] = molecular target: 320 GPCRs (Homo sapiens, UniProt Q8TDV2)
[34] = molecular target: 320 GPCRs (Homo sapiens, UniProt Q8TDV5)
[35] = molecular target: 320 GPCRs (Homo sapiens, UniProt Q96G91)
[36] = molecular target: 320 GPCRs (Homo sapiens, UniProt Q96RI9)
[37] = molecular target: 320 GPCRs (Homo sapiens, UniProt Q99677)
[38] = molecular target: 320 GPCRs (Homo sapiens, UniProt Q99678)
[39] = molecular target: 320 GPCRs (Homo sapiens, UniProt Q9BZJ8)
[40] = molecular target: 320 GPCRs (Homo sapiens, UniProt Q9NPC1)
[41] = molecular target: 320 GPCRs (Homo sapiens, UniProt Q9NS66)
[42] = molecular target: 320 GPCRs (Homo sapiens, UniProt Q9UJ42)
[43] = molecular target: 320 GPCRs (Homo sapiens, UniProt Q9UKP6)
Sequence of 320 GPCRs (Homo sapiens, UniProt Q9UKP6) (Q9UKP6 whole entry): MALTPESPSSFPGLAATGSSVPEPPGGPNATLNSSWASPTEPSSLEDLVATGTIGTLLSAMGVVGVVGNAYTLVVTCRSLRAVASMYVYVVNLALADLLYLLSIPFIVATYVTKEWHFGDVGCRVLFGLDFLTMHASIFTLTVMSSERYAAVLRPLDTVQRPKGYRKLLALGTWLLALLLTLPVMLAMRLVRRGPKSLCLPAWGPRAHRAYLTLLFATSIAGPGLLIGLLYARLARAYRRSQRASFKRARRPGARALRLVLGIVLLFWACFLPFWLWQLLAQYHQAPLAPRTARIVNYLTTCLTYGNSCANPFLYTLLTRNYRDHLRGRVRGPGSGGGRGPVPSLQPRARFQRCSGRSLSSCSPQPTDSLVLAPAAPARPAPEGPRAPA

Sequence of 320 GPCRs (Homo sapiens, UniProt O15218) (O15218 whole entry): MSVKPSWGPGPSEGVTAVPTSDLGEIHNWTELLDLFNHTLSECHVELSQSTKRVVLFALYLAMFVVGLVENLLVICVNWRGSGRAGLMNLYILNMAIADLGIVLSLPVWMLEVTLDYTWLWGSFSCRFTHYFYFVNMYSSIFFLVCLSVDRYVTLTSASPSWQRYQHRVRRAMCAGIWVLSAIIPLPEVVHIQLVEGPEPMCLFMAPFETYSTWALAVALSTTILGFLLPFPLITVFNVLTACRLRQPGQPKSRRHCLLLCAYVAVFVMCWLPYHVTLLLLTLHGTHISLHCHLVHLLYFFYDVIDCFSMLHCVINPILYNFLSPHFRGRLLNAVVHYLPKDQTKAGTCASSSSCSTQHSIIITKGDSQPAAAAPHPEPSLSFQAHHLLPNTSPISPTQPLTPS
Sequence of 320 GPCRs (Homo sapiens, UniProt P21453) (P21453 whole entry): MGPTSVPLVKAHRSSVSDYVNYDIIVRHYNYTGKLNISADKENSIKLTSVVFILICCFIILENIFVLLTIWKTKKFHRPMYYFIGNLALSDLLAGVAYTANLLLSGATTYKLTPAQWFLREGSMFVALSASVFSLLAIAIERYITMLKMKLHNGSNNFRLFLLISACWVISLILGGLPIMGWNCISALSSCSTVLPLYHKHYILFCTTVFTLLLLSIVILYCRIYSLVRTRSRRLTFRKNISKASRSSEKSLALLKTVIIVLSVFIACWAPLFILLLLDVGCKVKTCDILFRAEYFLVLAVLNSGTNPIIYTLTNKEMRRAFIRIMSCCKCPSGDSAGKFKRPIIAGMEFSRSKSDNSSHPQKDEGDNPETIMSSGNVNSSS
Sequence of 320 GPCRs (Homo sapiens, UniProt Q8TDV2) (Q8TDV2 whole entry): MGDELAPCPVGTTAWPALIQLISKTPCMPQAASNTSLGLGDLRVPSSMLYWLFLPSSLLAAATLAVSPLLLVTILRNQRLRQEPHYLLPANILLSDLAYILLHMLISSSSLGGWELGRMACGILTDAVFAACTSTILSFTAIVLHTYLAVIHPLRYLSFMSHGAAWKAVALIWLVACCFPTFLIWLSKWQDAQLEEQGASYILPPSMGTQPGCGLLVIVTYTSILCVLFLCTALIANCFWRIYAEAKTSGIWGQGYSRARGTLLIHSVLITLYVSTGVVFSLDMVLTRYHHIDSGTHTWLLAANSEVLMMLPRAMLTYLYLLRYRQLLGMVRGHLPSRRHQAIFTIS
Sequence of 320 GPCRs (Homo sapiens, UniProt Q13258) (Q13258 whole entry): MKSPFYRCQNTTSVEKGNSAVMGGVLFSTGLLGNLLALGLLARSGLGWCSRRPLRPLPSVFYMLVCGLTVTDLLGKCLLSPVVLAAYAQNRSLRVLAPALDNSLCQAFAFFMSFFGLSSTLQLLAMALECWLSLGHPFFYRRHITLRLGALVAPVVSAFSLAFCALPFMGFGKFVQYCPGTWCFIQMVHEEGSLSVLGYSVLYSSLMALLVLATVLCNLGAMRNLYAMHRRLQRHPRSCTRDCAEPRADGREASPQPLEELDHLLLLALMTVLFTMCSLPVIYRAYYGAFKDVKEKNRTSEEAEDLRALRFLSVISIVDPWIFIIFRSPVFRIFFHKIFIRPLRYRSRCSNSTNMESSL
Sequence of 320 GPCRs (Homo sapiens, UniProt Q16581) (Q16581 whole entry): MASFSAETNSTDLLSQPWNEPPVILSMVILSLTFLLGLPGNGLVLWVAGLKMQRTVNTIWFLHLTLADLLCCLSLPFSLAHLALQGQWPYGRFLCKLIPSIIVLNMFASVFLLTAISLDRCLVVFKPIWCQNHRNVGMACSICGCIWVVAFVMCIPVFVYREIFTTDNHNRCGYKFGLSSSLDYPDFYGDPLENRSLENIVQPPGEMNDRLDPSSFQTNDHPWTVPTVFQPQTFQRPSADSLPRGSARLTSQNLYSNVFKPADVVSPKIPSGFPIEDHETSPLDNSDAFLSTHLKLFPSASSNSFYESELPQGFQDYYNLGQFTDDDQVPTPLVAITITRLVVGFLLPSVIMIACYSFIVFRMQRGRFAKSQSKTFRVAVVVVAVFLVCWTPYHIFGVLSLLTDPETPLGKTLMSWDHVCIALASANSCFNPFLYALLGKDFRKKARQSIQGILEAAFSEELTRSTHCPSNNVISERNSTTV
Sequence of 320 GPCRs (Homo sapiens, UniProt Q96RI9) (Q96RI9 whole entry): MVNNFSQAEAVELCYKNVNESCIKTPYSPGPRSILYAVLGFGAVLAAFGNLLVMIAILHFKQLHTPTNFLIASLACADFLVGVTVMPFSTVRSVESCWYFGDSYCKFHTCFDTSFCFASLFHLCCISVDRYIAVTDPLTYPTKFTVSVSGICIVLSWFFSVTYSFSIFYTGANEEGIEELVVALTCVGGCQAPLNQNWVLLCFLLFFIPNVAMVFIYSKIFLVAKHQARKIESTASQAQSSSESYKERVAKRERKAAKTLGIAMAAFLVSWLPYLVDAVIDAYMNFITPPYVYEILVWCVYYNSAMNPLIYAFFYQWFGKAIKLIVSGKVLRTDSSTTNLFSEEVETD
Sequence of 320 GPCRs (Homo sapiens, UniProt Q8TDV5) (Q8TDV5 whole entry): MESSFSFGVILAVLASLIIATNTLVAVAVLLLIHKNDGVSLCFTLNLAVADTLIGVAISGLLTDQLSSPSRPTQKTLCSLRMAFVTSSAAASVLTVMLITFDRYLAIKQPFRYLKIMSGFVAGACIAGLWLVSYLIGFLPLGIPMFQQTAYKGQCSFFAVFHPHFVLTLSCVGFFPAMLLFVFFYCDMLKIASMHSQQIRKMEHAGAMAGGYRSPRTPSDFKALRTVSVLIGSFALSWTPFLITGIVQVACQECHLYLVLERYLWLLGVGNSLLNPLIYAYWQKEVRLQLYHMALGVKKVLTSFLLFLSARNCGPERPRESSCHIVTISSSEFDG
Sequence of 320 GPCRs (Homo sapiens, UniProt Q9UJ42) (Q9UJ42 whole entry): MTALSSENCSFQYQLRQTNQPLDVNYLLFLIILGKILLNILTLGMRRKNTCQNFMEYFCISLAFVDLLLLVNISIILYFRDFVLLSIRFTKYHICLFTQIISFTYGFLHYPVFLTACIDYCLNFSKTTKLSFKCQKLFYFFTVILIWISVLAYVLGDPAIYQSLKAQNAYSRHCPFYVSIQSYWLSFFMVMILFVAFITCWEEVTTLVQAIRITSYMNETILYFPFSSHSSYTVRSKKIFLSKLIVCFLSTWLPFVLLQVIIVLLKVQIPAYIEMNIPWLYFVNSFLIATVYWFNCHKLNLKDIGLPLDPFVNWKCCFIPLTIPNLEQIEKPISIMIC
Sequence of 320 GPCRs (Homo sapiens, UniProt O00574) (O00574 whole entry): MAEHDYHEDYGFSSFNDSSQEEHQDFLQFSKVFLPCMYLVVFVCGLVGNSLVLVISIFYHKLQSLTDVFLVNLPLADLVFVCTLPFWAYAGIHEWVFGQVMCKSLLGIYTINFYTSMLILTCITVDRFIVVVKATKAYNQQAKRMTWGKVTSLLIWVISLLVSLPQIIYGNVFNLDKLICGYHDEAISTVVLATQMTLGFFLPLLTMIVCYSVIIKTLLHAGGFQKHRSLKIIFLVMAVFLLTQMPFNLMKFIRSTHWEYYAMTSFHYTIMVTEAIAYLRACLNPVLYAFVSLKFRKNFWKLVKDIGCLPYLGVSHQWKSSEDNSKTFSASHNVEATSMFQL
Sequence of 320 GPCRs (Homo sapiens, UniProt Q13255) (Q13255 19-1194): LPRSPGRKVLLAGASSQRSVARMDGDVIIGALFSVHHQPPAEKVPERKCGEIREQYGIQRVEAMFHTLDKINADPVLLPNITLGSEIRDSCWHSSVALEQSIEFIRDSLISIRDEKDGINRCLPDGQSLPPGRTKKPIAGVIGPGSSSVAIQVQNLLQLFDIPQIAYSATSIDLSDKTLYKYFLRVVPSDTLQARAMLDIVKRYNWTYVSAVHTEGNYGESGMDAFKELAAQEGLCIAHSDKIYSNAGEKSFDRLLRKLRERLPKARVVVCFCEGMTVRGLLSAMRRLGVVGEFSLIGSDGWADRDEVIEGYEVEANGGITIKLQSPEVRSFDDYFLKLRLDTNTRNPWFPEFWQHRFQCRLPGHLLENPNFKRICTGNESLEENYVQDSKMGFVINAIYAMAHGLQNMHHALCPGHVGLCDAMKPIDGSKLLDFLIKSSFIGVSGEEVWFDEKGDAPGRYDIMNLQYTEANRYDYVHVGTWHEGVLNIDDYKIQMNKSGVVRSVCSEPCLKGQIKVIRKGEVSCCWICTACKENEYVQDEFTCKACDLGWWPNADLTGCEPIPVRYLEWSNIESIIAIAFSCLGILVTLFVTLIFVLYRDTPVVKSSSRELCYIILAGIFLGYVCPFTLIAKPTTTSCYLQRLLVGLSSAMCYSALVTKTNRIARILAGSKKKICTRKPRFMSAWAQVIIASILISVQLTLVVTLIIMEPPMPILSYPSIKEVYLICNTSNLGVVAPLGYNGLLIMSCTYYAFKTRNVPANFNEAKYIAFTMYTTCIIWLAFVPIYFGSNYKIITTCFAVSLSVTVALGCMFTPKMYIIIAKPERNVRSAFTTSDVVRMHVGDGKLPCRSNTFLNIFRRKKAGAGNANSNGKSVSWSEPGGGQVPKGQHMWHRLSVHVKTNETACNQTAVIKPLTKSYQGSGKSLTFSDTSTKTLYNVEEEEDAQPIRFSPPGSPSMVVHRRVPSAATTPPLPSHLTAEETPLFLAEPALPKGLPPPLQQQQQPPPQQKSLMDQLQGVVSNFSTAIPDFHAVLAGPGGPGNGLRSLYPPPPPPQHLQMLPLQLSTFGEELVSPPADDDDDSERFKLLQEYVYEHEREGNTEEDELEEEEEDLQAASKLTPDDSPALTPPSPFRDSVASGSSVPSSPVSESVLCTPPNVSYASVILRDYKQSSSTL

O=C(O)C1CCC2(CC1)CC(Nc1ncnc3[nH]c4c(F)cccc4c13)C2 (stereo not shown) [Compound 74, OC(=O)C1CCC2(CC(C2)NC=3N=CN=C4NC=5C(F)=CC=CC5C34)CC1]
RLU (Fold over Basal) [1]: 1.1 Fold over Basal and 0.8 Fold over Basal and 1.5 Fold over Basal | RLU (Fold over Basal) [2]: 1.8 Fold over Basal and 1.3 Fold over Basal | RLU (Fold over Basal) [3]: 2.1 Fold over Basal and 1.6 Fold over Basal and 1.9 Fold over Basal and 2.4 Fold over Basal | RLU (Fold over Basal) [4]: 0.7 Fold over Basal and 1.2 Fold over Basal and 0.9 Fold over Basal and 0.6 Fold over Basal | RLU (Fold over Basal) [5]: 1.6 Fold over Basal and 0.9 Fold over Basal | RLU (Fold over Basal) [6]: 0.5 Fold over Basal and 0.9 Fold over Basal and 0.6 Fold over Basal | RLU (Fold over Basal) [7]: 0.6 Fold over Basal and 0.8 Fold over Basal | RLU (Fold over Basal) [8]: 1 Fold over Basal and 1.6 Fold over Basal and 1.5 Fold over Basal | RLU (Fold over Basal) [9]: 1.7 Fold over Basal and 1.8 Fold over Basal and 1.4 Fold over Basal | RLU (Fold over Basal) [10]: 1.2 Fold over Basal and 0.6 Fold over Basal and 0.8 Fold over Basal and 0.9 Fold over Basal | RLU (Fold over Basal) [11]: 1 Fold over Basal and 1.4 Fold over Basal | RLU (Fold over Basal) [12]: 1 Fold over Basal and 0.5 Fold over Basal and 0.6 Fold over Basal | RLU (Fold over Basal) [13]: 0.9 Fold over Basal and 1.1 Fold over Basal and 0.8 Fold over Basal | RLU (Fold over Basal) [14]: 1 Fold over Basal and 0.9 Fold over Basal | RLU (Fold over Basal) [15]: 2.1 Fold over Basal and 1.3 Fold over Basal and 1.7 Fold over Basal and 1.5 Fold over Basal | RLU (Fold over Basal) [16]: 0.4 Fold over Basal and 0.7 Fold over Basal and 0.8 Fold over Basal | RLU (Fold over Basal) [17]: 0.7 Fold over Basal and 1 Fold over Basal and 0.9 Fold over Basal and 0.6 Fold over Basal | RLU (Fold over Basal) [18]: 0.7 Fold over Basal and 1.1 Fold over Basal | RLU (Fold over Basal) [19]: 0.8 Fold over Basal and 1.3 Fold over Basal and 0.9 Fold over Basal and 0.7 Fold over Basal | RLU (Fold over Basal) [20]: 1.2 Fold over Basal and 1.4 Fold over Basal and 1 Fold over Basal | RLU (Fold over Basal) [21]: 0.9 Fold over Basal and 0.7 Fold over Basal and 1 Fold over Basal | RLU (Fold over Basal) [22]: 0.7 Fold over Basal and 1 Fold over Basal and 0.9 Fold over Basal | RLU (Fold over Basal) [23]: 0.9 Fold over Basal and 1.1 Fold over Basal and 0.8 Fold over Basal | RLU (Fold over Basal) [24]: 0.7 Fold over Basal and 1 Fold over Basal and 1.1 Fold over Basal | RLU (Fold over Basal) [25]: 0.4 Fold over Basal and 0.6 Fold over Basal and 0.5 Fold over Basal | RLU (Fold over Basal) [26]: 1 Fold over Basal and 1.1 Fold over Basal and 0.9 Fold over Basal | RLU (Fold over Basal) [27]: 1 Fold over Basal and 1.3 Fold over Basal and 0.9 Fold over Basal and 1.8 Fold over Basal | RLU (Fold over Basal) [28]: 1.2 Fold over Basal and 1.3 Fold over Basal and 0.8 Fold over Basal and 1 Fold over Basal | RLU (Fold over Basal) [29]: 1.3 Fold over Basal and 0.7 Fold over Basal | RLU (Fold over Basal) [30]: 1 Fold over Basal and 1.1 Fold over Basal and 0.9 Fold over Basal and 1.5 Fold over Basal | RLU (Fold over Basal) [31]: 1.6 Fold over Basal and 1.9 Fold over Basal and 1.1 Fold over Basal and 1.2 Fold over Basal | RLU (Fold over Basal) [32]: 1.1 Fold over Basal and 0.6 Fold over Basal and 0.7 Fold over Basal | RLU (Fold over Basal) [33]: 0.8 Fold over Basal and 0.5 Fold over Basal and 1 Fold over Basal | RLU (Fold over Basal) [34]: 0.5 Fold over Basal and 0.6 Fold over Basal and 0.8 Fold over Basal | RLU (Fold over Basal) [35]: 1 Fold over Basal and 0.7 Fold over Basal and 1.1 Fold over Basal and 1.4 Fold over Basal | RLU (Fold over Basal) [36]: 0.9 Fold over Basal and 1.1 Fold over Basal and 1.2 Fold over Basal | RLU (Fold over Basal) [37]: 0.9 Fold over Basal and 0.7 Fold over Basal and 0.8 Fold over Basal | RLU (Fold over Basal) [38]: 0.9 Fold over Basal and 1.6 Fold over Basal and 0.8 Fold over Basal | RLU (Fold over Basal) [39]: 0.8 Fold over Basal and 1.4 Fold over Basal and 1 Fold over Basal and 1.1 Fold over Basal | RLU (Fold over Basal) [40]: 0.9 Fold over Basal and 1.5 Fold over Basal and 0.8 Fold over Basal and 1.3 Fold over Basal | RLU (Fold over Basal) [41]: 1.1 Fold over Basal and 1.2 Fold over Basal and 1 Fold over Basal and 0.6 Fold over Basal | RLU (Fold over Basal) [42]: 4 Fold over Basal and 2 Fold over Basal and 3.4 Fold over Basal and 3.2 Fold over Basal | RLU (Fold over Basal) [43]: 0.6 Fold over Basal and 0.7 Fold over Basal and 0.9 Fold over Basal
